In ChEMBL document CHEMBL1158642, “Syntheses and biological evaluation of ring-C modified colchicine analogs” (Bioorg Med Chem Lett, 2010):
Active and inactive are the calls of the source. The calls are words filed in the database; no cut-off is given here.

What was measured:
[1] = tested on: MCF7; assay: Cytotoxicity against human MCF7 cells after 72 hrs by crystal violet staining; type: functional, cell-based; details: MCF7, 72 h
[2] = tested on: PC-3; assay: Cytotoxicity against human PC3 cells after 72 hrs by crystal violet staining; type: functional, cell-based; details: PC-3, 72 h
[3] = Inhibition of microtubule polymerization at 10 uM after 10 mins

Structure (SMILES)	IC50 [1]	IC50 [2]	Activity [3]
COC1=C[C@H]2C3=C([C@@H](ON2c2cc(C)ccn2)C1=O)[C@@H](NC(C)=O)CCc1cc(OC)c(OC)c(OC)c13	10 nM	14 nM	
COC1=C[C@H]2C3=C([C@@H](ON2c2cc(C)on2)C1=O)[C@@H](NC(C)=O)CCc1cc(OC)c(OC)c(OC)c13	190 nM	250 nM	Active
COC1=C[C@@H]2ON(c3cnoc3C)[C@@H](C1=O)C1=C2c2c(cc(OC)c(OC)c2OC)CC[C@@H]1NC(C)=O	250 nM	245 nM	inactive
CCc1cccc(N2O[C@H]3C(=O)C(OC)=C[C@H]2C2=C3[C@@H](NC(C)=O)CCc3cc(OC)c(OC)c(OC)c32)n1	22 nM	23 nM	
COC1=C[C@H]2C3=C([C@@H](ON2c2cccc(C)n2)C1=O)[C@@H](NC(C)=O)CCc1cc(OC)c(OC)c(OC)c13	20 nM	25 nM	Active
COC1=C[C@H]2C3=C([C@@H](ON2c2ccccn2)C1=O)[C@@H](NC(C)=O)CCc1cc(OC)c(OC)c(OC)c13	17 nM	28 nM	Active
COc1cc2c(c(OC)c1OC)-c1ccc(OC)c(=O)cc1[C@@H](NC(C)=O)CC2 [COLCHICINE]		20 nM	Active
